Measured values as given in ChEMBL document CHEMBL1152224, “Small, non-peptide C5a receptor antagonists: part 1” (Bioorg Med Chem Lett, 2008).

What was measured:
[1] = Lipophilicity, log P of the compound; assay type: physicochemical; settings: octanol/water
in vitro = settings: human, liver microsomes
physchem = settings: octanol/water, pH 7.4
[2] = Half life in rat at 0.5 mg/kg, iv and 10 mg/kg, po; assay type: ADME, organism-based; settings: in vivo
[3] = Oral bioavailability in rat at 10 mg/kg, po; assay type: ADME, organism-based; settings: in vivo
[4] = Volume of distribution in rat at 0.5 mg/kg, iv and 10 mg/kg, po; assay type: ADME, organism-based; settings: in vivo
[5] = Clearance in rat at 0.5 mg/kg, iv and 10 mg/kg, po; assay type: ADME, organism-based; settings: in vivo
[6] = Clearance in dog at 0.5 mg/kg, iv; assay type: ADME, organism-based, Canis lupus familiaris; set-up: dose 0.5 mg/kg, route intravenous; settings: in vivo
[7] = Volume of distribution in dog at 0.5 mg/kg, iv; assay type: ADME, organism-based, Canis lupus familiaris; set-up: dose 0.5 mg/kg, route intravenous; settings: in vivo
[8] = Half life in dog at 0.5 mg/kg, iv; assay type: ADME, organism-based, Canis lupus familiaris; set-up: dose 0.5 mg/kg, route intravenous; settings: in vivo

Compound: O=C(Nc1ccc(F)cc1F)N1CCC(N(CCc2ccc(Cl)cc2)C(=O)c2csc3ccccc23)CC1
- logP [1]: > 5
- half-life (in vitro): 11 min

Compound: O=C(c1csc2ccccc12)N(CCc1ccc(Cl)cc1)[C@H]1CC[C@H](O)CC1
- logD (physchem): 4.9
- half-life [2]: 30 min
- bioavailability [3]: 0.5%
- half-life (in vitro): 14 min
- Vd [4]: 3 L/kg
- clearance [5]: 4.02 L/h/kg

Compound: O=C(c1cccc2ccccc12)N(CCc1ccc(Cl)cc1)[C@H]1CC[C@H](O)CC1
- clearance [6]: 1.74 L/h/kg
- logD (physchem): > 5
- Vd [7]: 3.5 L/kg
- half-life [8]: 84 min
- half-life (in vitro): 20 min

Compound: O=C(c1csc2ccccc12)N(CCc1ccc(Cl)cc1)C1CCN(CCc2ccc(F)cc2F)CC1
- logD (physchem): 4.1
